Tested on: MC38 tumors
Experiment: Anti-tumor efficacy of Compound 1 and Compound 3 by IV and SC routes in the MC38 model (Example 9)
Type: in vivo, mice
Experimental: Female C57BL/6 mice were inoculated subcutaneously in the right flank with MC38 cells for tumor development. Six days after tumor inoculation, mice with tumor sizes ranging from 52-97 mm^3 (average tumor size 71 mm^3) were selected and assigned into 10 groups using stratified randomization with 8 mice per group based upon their tumor volumes. The treatments were started from the day of randomization (defined as D0), Group 1 was treated with Vehicle control, SC qd×5 days on (Mon-Fri)×4 cycles; Group 2 was treated with Compound 1, 1.4 mpk SC, qd×5 days on (Mon-Fri)×4 cycles; Group 3 was treated with Compound 1, 7 mpk IV, biw (Mon, Thu)×4 cycles; Group 4 was treated with Compound 1, 14 mpk IV, biw (Mon, Thu)×4 cycles; Group 5 was treated with Compound 1, 14 mpk IV, qw (Mon)×4 cycles; Group 6 was treated with Compound 1, 21 mpk IV, qw (Mon)×4 cycles; Group 7 was treated with Compound 3, 1 mpk SC, qd 5 days on (Mon-Fri)×4 cycles; Group 8 was treated with Compound 3, 3 mpk SC, qd 5 days on (Mon-Fri)×4 cycles; Group 9 was treated with Compound 3, 9 mpk SC, qd 5 days on (Mon-Fri)×4 cycles; and Group 10 was treated with Compound 3, 7 mpk IV, tiw (Mon, Wed, Fri)×4 cycles. The tumor sizes were measured three times per week during the treatment. Survival was monitored with tumor volume exceeding 2000 mm^3 as endpoint. The entire study was terminated on D44 after start of the treatment. All treatments were well-tolerated without any adverse effects or significant body weight loss.

[1] = Group 7, 1 mpk SC qd Mon-Fri x4 cycles
[2] = Group 7, 1 mpk SC qd Mon-Fri x4 cycles, day 11
[3] = Group 8, 3 mpk SC qd Mon-Fri x4 cycles
[4] = Group 8, 3 mpk SC qd Mon-Fri x4 cycles, day 11
[5] = Group 9, 9 mpk SC qd Mon-Fri x4 cycles
[6] = Group 9, 9 mpk SC qd Mon-Fri x4 cycles, day 11
[7] = Group 10, 7 mpk IV tiw x4 cycles

SMILES: CC(=O)N[C@@H](Cc1c[nH]c2ccccc12)C(=O)N[C@@H](CCC(=O)C=[N+]=[N-])C(=O)O [Compound 3, (S)-2-((S)-2-acetamido-3-(1H-indol-3-yl)propanamido)-6-diazo-5-oxohexanoic acid]
- ILS [1]: 106.7%
- MST [1]: 31 days
- RTV at day 11 [1]: 2.22 ± 0.22
- Tumor Size at day 11 [1]: 152 ± 10 mm^3
- Tumor volume (Group 7, 1 mpk SC qd Mon-Fri x4 cycles, day 0): 70 ± 4 mm^3
- Tumor volume (Group 7, 1 mpk SC qd Mon-Fri x4 cycles, day 2): 91 ± 9 mm^3
- Tumor volume (Group 7, 1 mpk SC qd Mon-Fri x4 cycles, day 4): 83 ± 9 mm^3
- Tumor volume (Group 7, 1 mpk SC qd Mon-Fri x4 cycles, day 7): 201 ± 26 mm^3
- Tumor volume (Group 7, 1 mpk SC qd Mon-Fri x4 cycles, day 9): 181 ± 18 mm^3
- T/C [2]: 13.66%
- TGI [2]: 92.34%
- Tumor volume [2]: 152 ± 10 mm^3
- Tumor volume (Group 7, 1 mpk SC qd Mon-Fri x4 cycles, day 14): 293 ± 60 mm^3
- Tumor volume (Group 7, 1 mpk SC qd Mon-Fri x4 cycles, day 16): 298 ± 60 mm^3
- Tumor volume (Group 7, 1 mpk SC qd Mon-Fri x4 cycles, day 18): 400 ± 79 mm^3
- Tumor volume (Group 7, 1 mpk SC qd Mon-Fri x4 cycles, day 21): 644 ± 160 mm^3
- Tumor volume (Group 7, 1 mpk SC qd Mon-Fri x4 cycles, day 23): 975 ± 238 mm^3
- ILS [3]: 170.0%
- MST [3]: 40.5 days
- RTV at day 11 [3]: 0.85 ± 0.11
- Tumor Size at day 11 [3]: 39 ± 5 mm^3
- Tumor volume (Group 8, 3 mpk SC qd Mon-Fri x4 cycles, day 0): 70 ± 5 mm^3
- Tumor volume (Group 8, 3 mpk SC qd Mon-Fri x4 cycles, day 2): 88 ± 7 mm^3
- Tumor volume (Group 8, 3 mpk SC qd Mon-Fri x4 cycles, day 4): 59 ± 9 mm^3
- Tumor volume (Group 8, 3 mpk SC qd Mon-Fri x4 cycles, day 7): 57 ± 14 mm^3
- Tumor volume (Group 8, 3 mpk SC qd Mon-Fri x4 cycles, day 9): 45 ± 6 mm^3
- T/C [4]: 5.22%
- TGI [4]: 101.21%
- Tumor volume [4]: 39 ± 5 mm^3
- Tumor volume (Group 8, 3 mpk SC qd Mon-Fri x4 cycles, day 14): 41 ± 7 mm^3
- Tumor volume (Group 8, 3 mpk SC qd Mon-Fri x4 cycles, day 16): 47 ± 7 mm^3
- Tumor volume (Group 8, 3 mpk SC qd Mon-Fri x4 cycles, day 18): 22 ± 4 mm^3
- Tumor volume (Group 8, 3 mpk SC qd Mon-Fri x4 cycles, day 21): 29 ± 3 mm^3
- Tumor volume (Group 8, 3 mpk SC qd Mon-Fri x4 cycles, day 23): 26 ± 2 mm^3
- Tumor volume (Group 8, 3 mpk SC qd Mon-Fri x4 cycles, day 25): 23 ± 4 mm^3
- Tumor volume (Group 8, 3 mpk SC qd Mon-Fri x4 cycles, day 28): 22 ± 4 mm^3
- Tumor volume (Group 8, 3 mpk SC qd Mon-Fri x4 cycles, day 30): 52 ± 8 mm^3
- Tumor volume (Group 8, 3 mpk SC qd Mon-Fri x4 cycles, day 32): 213 ± 47 mm^3
- Tumor volume (Group 8, 3 mpk SC qd Mon-Fri x4 cycles, day 35): 351 ± 61 mm^3
- Tumor volume (Group 8, 3 mpk SC qd Mon-Fri x4 cycles, day 37): 692 ± 129 mm^3
- ILS [5]: 180.0%
- MST [5]: 42 days
- RTV at day 11 [5]: 0.56 ± 0.07
- Tumor Size at day 11 [5]: 39 ± 5 mm^3
- Tumor volume (Group 9, 9 mpk SC qd Mon-Fri x4 cycles, day 0): 71 ± 5 mm^3
- Tumor volume (Group 9, 9 mpk SC qd Mon-Fri x4 cycles, day 2): 88 ± 7 mm^3
- Tumor volume (Group 9, 9 mpk SC qd Mon-Fri x4 cycles, day 4): 59 ± 9 mm^3
- Tumor volume (Group 9, 9 mpk SC qd Mon-Fri x4 cycles, day 7): 57 ± 14 mm^3
- Tumor volume (Group 9, 9 mpk SC qd Mon-Fri x4 cycles, day 9): 45 ± 6 mm^3
- T/C [6]: 3.45%
- TGI [6]: 102.98%
- Tumor volume [6]: 39 ± 5 mm^3
- Tumor volume (Group 9, 9 mpk SC qd Mon-Fri x4 cycles, day 14): 41 ± 7 mm^3
- Tumor volume (Group 9, 9 mpk SC qd Mon-Fri x4 cycles, day 16): 47 ± 7 mm^3
- Tumor volume (Group 9, 9 mpk SC qd Mon-Fri x4 cycles, day 18): 22 ± 4 mm^3
- Tumor volume (Group 9, 9 mpk SC qd Mon-Fri x4 cycles, day 21): 29 ± 3 mm^3
- Tumor volume (Group 9, 9 mpk SC qd Mon-Fri x4 cycles, day 23): 26 ± 2 mm^3
- Tumor volume (Group 9, 9 mpk SC qd Mon-Fri x4 cycles, day 25): 23 ± 4 mm^3
- Tumor volume (Group 9, 9 mpk SC qd Mon-Fri x4 cycles, day 28): 22 ± 4 mm^3
- Tumor volume (Group 9, 9 mpk SC qd Mon-Fri x4 cycles, day 30): 52 ± 8 mm^3
- Tumor volume (Group 9, 9 mpk SC qd Mon-Fri x4 cycles, day 32): 213 ± 47 mm^3
- Tumor volume (Group 9, 9 mpk SC qd Mon-Fri x4 cycles, day 35): 351 ± 61 mm^3
- Tumor volume (Group 9, 9 mpk SC qd Mon-Fri x4 cycles, day 37): 692 ± 129 mm^3
- Tumor volume (Group 9, 9 mpk SC qd Mon-Fri x4 cycles, day 39): 1235 ± 196 mm^3
- Tumor volume (Group 9, 9 mpk SC qd Mon-Fri x4 cycles, day 42): 2174 ± 275 mm^3
- ILS [7]: 146.7%
- MST [7]: 37 days
- Tumor volume (Group 10, 7 mpk IV tiw x4 cycles, day 0): 71 ± 5 mm^3
- Tumor volume (Group 10, 7 mpk IV tiw x4 cycles, day 2): 86 ± 5 mm^3
- Tumor volume (Group 10, 7 mpk IV tiw x4 cycles, day 4): 76 ± 7 mm^3
- Tumor volume (Group 10, 7 mpk IV tiw x4 cycles, day 7): 76 ± 8 mm^3
- Tumor volume (Group 10, 7 mpk IV tiw x4 cycles, day 9): 61 ± 7 mm^3
- Tumor volume (Group 10, 7 mpk IV tiw x4 cycles, day 11): 68 ± 13 mm^3
- Tumor volume (Group 10, 7 mpk IV tiw x4 cycles, day 14): 85 ± 16 mm^3
- Tumor volume (Group 10, 7 mpk IV tiw x4 cycles, day 16): 115 ± 21 mm^3
- Tumor volume (Group 10, 7 mpk IV tiw x4 cycles, day 18): 107 ± 21 mm^3
- Tumor volume (Group 10, 7 mpk IV tiw x4 cycles, day 21): 131 ± 21 mm^3
- Tumor volume (Group 10, 7 mpk IV tiw x4 cycles, day 23): 233 ± 46 mm^3
- Tumor volume (Group 10, 7 mpk IV tiw x4 cycles, day 25): 273 ± 59 mm^3
- Tumor volume (Group 10, 7 mpk IV tiw x4 cycles, day 28): 356 ± 103 mm^3
- Tumor volume (Group 10, 7 mpk IV tiw x4 cycles, day 30): 575 ± 121 mm^3
- Tumor volume (Group 10, 7 mpk IV tiw x4 cycles, day 32): 849 ± 134 mm^3
- Tumor volume (Group 10, 7 mpk IV tiw x4 cycles, day 35): 1688 ± 223 mm^3
